According to PMC4227742 (Journal of the American Chemical Society, 2014):
Blank lines part the entries; values can stand above or below the compound they belong to.

Columns and labels:
Gcn5 [1] = molecular target: T1, Gcn5 (Homo sapiens, UniProt Q92830); assay: Competitive substrate profiling: Gcn5 labeling by probe 2 vs acyl-CoAs; format: binding; details: 2 (10 μM), acyl-CoAs (1000 μM)
Gcn5 [2] = molecular target: T1, Gcn5; assay: LC–MS/MS verification of Gcn5 acyltransferase activity; format: biochemical; details: LC–MS/MS analysis, Supplementary Figure S10
pCAF [3] = molecular target: T2, pCAF (Homo sapiens, UniProt Q92831); details: excess competitor (100 μM), probe 2 1 μM
Mof = molecular target: T3, Mof (Homo sapiens, UniProt Q9H7Z6); assay: Competition of Mof labeling by probe 3; format: binding; details: excess competitor (100 μM), probe 3 1 μM
T3 sequence (Q9H7Z6 147-449): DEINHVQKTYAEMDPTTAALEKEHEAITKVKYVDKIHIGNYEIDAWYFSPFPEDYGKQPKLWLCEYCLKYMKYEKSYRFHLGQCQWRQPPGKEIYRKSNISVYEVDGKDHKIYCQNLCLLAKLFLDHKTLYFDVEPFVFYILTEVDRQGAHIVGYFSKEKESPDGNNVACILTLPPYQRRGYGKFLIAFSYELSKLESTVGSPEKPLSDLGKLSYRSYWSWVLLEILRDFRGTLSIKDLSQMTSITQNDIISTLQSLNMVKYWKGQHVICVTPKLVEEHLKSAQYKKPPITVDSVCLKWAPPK

pCAF [4] = details: read-out: literature IC50; cited from earlier work
human pCAF = details: cited from earlier work
pCAF [5] = molecular target: T2, pCAF; assay: Labeling of pCAF in HEK-293 overexpression extracts; format: binding
Mof (MYST1) = molecular target: T4, Mof (MYST1) (Homo sapiens, UniProt Q9H7Z6); assay: Photoaffinity/click fluorescent labeling of recombinant KAT, SDS-PAGE; format: binding; details: for Labeling of Mof in KAT cocktail: probe 1 μM, mixture of p300, pCAF
T4 sequence (Q9H7Z6 147-449): T3 sequence (Q9H7Z6 147-449)

pCAF [6] = molecular target: T2, pCAF; assay: Detection of recombinant pCAF spiked into HeLa cell proteome; format: binding
pCAF [7] = molecular target: T2, pCAF; assay: Photoaffinity/click fluorescent labeling of recombinant KAT, SDS-PAGE; format: binding; details: for Fluorescent detection of pCAF at high probe concentration: 1 μM probe; for Labeling of pCAF in KAT cocktail: probe 1 μM, mixture of p300, pCAF, Mof
p300 = molecular target: T5, p300 (Homo sapiens, UniProt Q09472); assay: as above; format: binding; details: probe 1 μM; mixture of p300, pCAF, Mof
T5 sequence (Q09472 1284-1673): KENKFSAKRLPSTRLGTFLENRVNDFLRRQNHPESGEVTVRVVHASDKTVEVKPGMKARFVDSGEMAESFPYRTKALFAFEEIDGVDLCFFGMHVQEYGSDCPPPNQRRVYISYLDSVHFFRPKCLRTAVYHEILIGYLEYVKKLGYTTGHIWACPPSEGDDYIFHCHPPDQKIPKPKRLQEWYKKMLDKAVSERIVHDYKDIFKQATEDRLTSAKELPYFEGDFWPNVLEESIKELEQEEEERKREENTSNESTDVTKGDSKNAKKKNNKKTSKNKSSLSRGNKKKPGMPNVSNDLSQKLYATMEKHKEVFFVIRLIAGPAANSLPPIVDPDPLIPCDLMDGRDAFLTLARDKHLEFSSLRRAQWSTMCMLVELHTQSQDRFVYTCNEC

[8] = probe 1–10 μM, 365 nm, click with fluorescent azide

Compound: CC(=O)SCCNC(=O)CCNC(=O)[C@H](O)C(C)(C)COP(=O)(O)OP(=O)(O)OC[C@H]1O[C@@H](n2cnc3c(N)ncnc32)[C@H](O)[C@@H]1OP(=O)(O)O [acetyl-CoA]
Competition with 2 for active site occupancy of Gcn5 (Gcn5 [1]): efficiently competed labeling

Compound: CCCC(=O)SCCNC(=O)CCNC(=O)[C@H](O)C(C)(C)COP(=O)(O)OP(=O)(O)OC[C@H]1O[C@@H](n2cnc3c(N)ncnc32)[C@H](O)[C@@H]1OP(=O)(O)O [butyryl-CoA]
Use as substrate by Gcn5 (Gcn5 [2]): utilized | Competition with 2 for active site occupancy of Gcn5 (Gcn5 [1]): partial antagonist

Compound: CC(=O)N[C@@H](CCCCNC(=O)CSCCNC(=O)CCNC(=O)[C@H](O)C(C)(C)COP(=O)(O)OP(=O)(O)OC[C@H]1O[C@@H](n2cnc3c(N)ncnc32)[C@H](O)[C@@H]1OP(=O)(O)O)C(N)=O [compound 4, Lys-CoA]
Competition of interaction of pCAF with 2 (pCAF [3]): no similar effect | Competition of Mof-3 interaction (Mof): competed

Compound: CC(C)(COP(=O)(O)OP(=O)(O)OC[C@H]1O[C@@H](n2cnc3c(N)ncnc32)[C@H](O)[C@@H]1OP(=O)(O)O)[C@@H](O)C(=O)NCCC(=O)NCCSC(=O)CC(=O)O [malonyl-CoA]
Use as substrate by pCAF (human pCAF): not utilized as a substrate

Compound: H3K14-CoA-BPyne [compound 2]
Labeling of Mof in KAT cocktail (Mof (MYST1)): weaker, but detectable, labeling | Labeling of pCAF in HEK-293 overexpression extracts (pCAF [5]; fluorescence gel): Weak but detectable labeling | Lower limit of pCAF detection (pCAF [6]; 2 (1 μM), HeLa proteome (7 μg), gel-based): 2.5 pmols | Detection of pCAF spiked into HeLa cell proteomes (pCAF [6]; pCAF 7 pmols): capable of detecting | Relative labeling of pCAF at low probe concentration (pCAF [7]; 0.1 μM probe, clickable 2 compared with fluorescent probe 7): visibly greater labeling | Fluorescent detection of pCAF at high probe concentration (pCAF [7]): facilitate fluorescent detection | Fraction of pCAF covalently labeled (cross-linking yield) (pCAF [7]; 60 min irradiation at 365 nm on ice, gel densitometry): 33–40% | Labeling of pCAF in KAT cocktail (pCAF [7]): clear preference for specific labeling | Fluorescent labeling of purified recombinant pCAF (pCAF [7]; [8]): reacted effectively

Compound: H4K16-CoA-BPyne [compound 3]
Labeling of Mof in KAT cocktail (Mof (MYST1)): most strongly labeled | Fluorescent labeling of purified recombinant Mof (Mof (MYST1); [8]): reacted effectively | Labeling of p300 in KAT cocktail (p300): fainter labeling | Labeling of pCAF in KAT cocktail (pCAF [7]): fainter labeling

Further lines, results first:

Competition with 2 for active site occupancy of Gcn5 (Gcn5 [1]): did not impede labeling
Compound: CC=CC(=O)SCCNC(=O)CCNC(=O)[C@H](O)C(C)(C)COP(=O)(O)OP(=O)(O)OC[C@H]1O[C@@H](n2cnc3c(N)ncnc32)[C@H](O)[C@@H]1OP(=O)(O)O [crotonyl-CoA]

Use as substrate by Gcn5 (Gcn5 [2]): utilized | Competition with 2 for active site occupancy of Gcn5 (Gcn5 [1]): antagonized labeling
Compound: CCC(=O)SCCNC(=O)CCNC(=O)[C@H](O)C(C)(C)COP(=O)(O)OP(=O)(O)OC[C@H]1O[C@@H](n2cnc3c(N)ncnc32)[C@H](O)[C@@H]1OP(=O)(O)O [propionyl-CoA]

Competition of pCAF labeling by 2 in HEK-293 overexpression extracts (pCAF [5]; competitor): sensitive to competition
Compound: H3K14-CoA [compound 5, reference compound]

Fluorescent detection of pCAF at high probe concentration (pCAF [7]): facilitate fluorescent detection
Compound: TAMRA-H3K14-CoA [compound 7]
